Measurements taken from publication PMC9257626 (RSC Chemical Biology, 2022).
Where a name gives a salt, the structure may show the parent alone.

Target: GAPDH (endogenous, HeLa / Jurkat) (Homo sapiens, UniProt P04406)
Format: biochemical

GAPDH (endogenous, HeLa / Jurkat), sequence (P04406 2-335 limits assumed): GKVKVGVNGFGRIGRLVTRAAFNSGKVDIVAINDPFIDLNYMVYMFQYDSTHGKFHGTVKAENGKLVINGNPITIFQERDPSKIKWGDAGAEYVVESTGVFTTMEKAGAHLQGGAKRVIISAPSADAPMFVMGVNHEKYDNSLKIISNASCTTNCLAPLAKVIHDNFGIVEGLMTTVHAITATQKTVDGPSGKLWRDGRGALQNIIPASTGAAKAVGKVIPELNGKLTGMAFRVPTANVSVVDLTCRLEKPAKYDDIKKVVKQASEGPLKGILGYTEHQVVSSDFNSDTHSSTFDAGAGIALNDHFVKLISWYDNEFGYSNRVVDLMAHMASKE

Row | Structure (SMILES) | loss of SEC1 labeling at 5 μM
1 | O=C(O)C(=O)CBr [3-BP, 3-bromopyruvate] | 3-BP, IA and DMF showed complete loss of SEC1 labeling even at the lower concentration
2 | COC(=O)/C=C/C(=O)OC [DMF, dimethyl fumarate] | 3-BP, IA and DMF showed complete loss of SEC1 labeling even at the lower concentration
